The record followed here is EP0630648A1, “Use of acyl L-carnitine gamma-hydroxybutyrate for the treatment of drug addiction” (Sigma-Tau Industrie Farmaceutiche Riunite S.p.A., priority 1993, dated 1994).

Marks after values point to notes of the source that are not given here.

For the first test, the system named is male Wistar rats. Kind of test: Heroin self-administration behaviour in rats. To be noted: 3rd day; in the space of 3 hours; 100 mg/kg daily intraperitoneal.
For `CC(=O)OC(CC(=O)[O-])C[N+](C)(C)C` [LAC, acetyl L-carnitine], the “number of heroin self-administrations” value worked out at 7.0 ± 0.5.
On the same count and under the same terms, the result for `O=C(O)CCCO` [GHB, gamma-hydroxybutyric acid] reads 7.5 ± 0.6.
In the case of `CC(C)CC(=O)O[C@H](CC(=O)[O-])C[N+](C)(C)C` [VC, isovaleryl L-carnitine], the “number of heroin self-administrations” value turned out to be 7.2 ± 0.5.
For the compound `CC(C)CC(=O)O[C@H](CC(=O)OCCCC(=O)[O-])C[N+](C)(C)C` [VCGB, isovaleryl L-carnitine gamma-hydroxybutyrate], the “number of heroin self-administrations” value is listed as 6.3 ± 0.5.

Still in this test, the particulars now being: 4th day; in the space of 3 hours; 100 mg/kg daily intraperitoneal.
For the compound `CC(=O)OC(CC(=O)[O-])C[N+](C)(C)C` [LAC, acetyl L-carnitine], the “number of heroin self-administrations” value is reported as 9.2 ± 0.5.
The same measure, in the same setting: the result for `O=C(O)CCCO` [GHB, gamma-hydroxybutyric acid] reads 8.0 ± 0.7.
On to `CC(C)CC(=O)O[C@H](CC(=O)[O-])C[N+](C)(C)C` [VC, isovaleryl L-carnitine], for which the “number of heroin self-administrations” value came out at 9.5 ± 0.5.
The same measure, in the same setting: the result for `CC(C)CC(=O)O[C@H](CC(=O)OCCCC(=O)[O-])C[N+](C)(C)C` [VCGB, isovaleryl L-carnitine gamma-hydroxybutyrate] reads 6.8 ± 0.4.

Staying with this test, now noted: 5th day; in the space of 3 hours; 100 mg/kg daily intraperitoneal.
Consider `CC(=O)OC(CC(=O)[O-])C[N+](C)(C)C` [LAC, acetyl L-carnitine], for which the “number of heroin self-administrations” value was determined as 8.9 ± 0.8.
Take `O=C(O)CCCO` [GHB, gamma-hydroxybutyric acid]: the “number of heroin self-administrations” value came out at 9.0 ± 0.6.
The same measure, in the same setting: then `CC(C)CC(=O)O[C@H](CC(=O)[O-])C[N+](C)(C)C` [VC, isovaleryl L-carnitine], with 8.8 ± 0.5; and `CC(C)CC(=O)O[C@H](CC(=O)OCCCC(=O)[O-])C[N+](C)(C)C` [VCGB, isovaleryl L-carnitine gamma-hydroxybutyrate], with 6.3 ± 0.5.

Staying with this test, now noted: summary of the table; 100 mg/kg daily intraperitoneal.
For `CC(C)CC(=O)O[C@H](CC(=O)OCCCC(=O)[O-])C[N+](C)(C)C` [VCGB, isovaleryl L-carnitine gamma-hydroxybutyrate], the “effect on number of heroin self-administrations (in words)” value is reported as “very long-lasting action in reducing the number of self-administrations”.

For a further test, the system named is male Wistar rats. Briefly: Hot-plate test: onset of habituation to the analgesic action of morphine. The class given is in vivo. The following applies: T 0; after 15 days of daily morphine; substance 100 mg/kg i.p.; morphine 10 mg/kg i.p.; plate 51°C. How it is done: Morphine addiction was induced in the rats by daily injections for a period of 15 days.
Five different groups of animals also received saline solution, VCGB, GHB, LAC or VC (100 mg/kg i.p.), respectively.
On the technique in general: Thermal pain tests record how soon the animal reacts.
`CC(=O)OC(CC(=O)[O-])C[N+](C)(C)C` [LAC, acetyl L-carnitine] yielded a mean latency of 6.0 s.
Still for that read-out and setting: the result for `O=C(O)CCCO` [GHB, gamma-hydroxybutyric acid] reads 5.5 s.
Compound `CC(C)CC(=O)O[C@H](CC(=O)[O-])C[N+](C)(C)C` [VC, isovaleryl L-carnitine] came in with a mean latency of 6.0 s.
On the same count and under the same terms, then `CC(C)CC(=O)O[C@H](CC(=O)OCCCC(=O)[O-])C[N+](C)(C)C` [VCGB, isovaleryl L-carnitine gamma-hydroxybutyrate], with 6.5 s.

Staying with this test, now noted: T 30; after 15 days of daily morphine; substance 100 mg/kg i.p.; morphine 10 mg/kg i.p.; plate 51°C.
As for `CC(=O)OC(CC(=O)[O-])C[N+](C)(C)C` [LAC, acetyl L-carnitine], the mean latency is given as 10.0* sec.
The same measure, in the same setting: then `O=C(O)CCCO` [GHB, gamma-hydroxybutyric acid], with 13.0* sec; and `CC(C)CC(=O)O[C@H](CC(=O)[O-])C[N+](C)(C)C` [VC, isovaleryl L-carnitine], with 10.0* sec.
As to `CC(C)CC(=O)O[C@H](CC(=O)OCCCC(=O)[O-])C[N+](C)(C)C` [VCGB, isovaleryl L-carnitine gamma-hydroxybutyrate], the mean latency is 14.0* sec.

Staying with this test, now noted: T 240; after 15 days of daily morphine; substance 100 mg/kg i.p.; morphine 10 mg/kg i.p.; plate 51°C.
`CC(=O)OC(CC(=O)[O-])C[N+](C)(C)C` [LAC, acetyl L-carnitine] had a mean latency of 6.0 s.
The compound `O=C(O)CCCO` [GHB, gamma-hydroxybutyric acid] registered a mean latency of 6.0 s.
On the same count and under the same terms, then `CC(C)CC(=O)O[C@H](CC(=O)[O-])C[N+](C)(C)C` [VC, isovaleryl L-carnitine], with 6.0 s.
`CC(C)CC(=O)O[C@H](CC(=O)OCCCC(=O)[O-])C[N+](C)(C)C` [VCGB, isovaleryl L-carnitine gamma-hydroxybutyrate]: the mean latency is listed as 10.0* sec.

The same test, now with this note: summary of the table; 100 mg/kg i.p.
As to `CC(C)CC(=O)O[C@H](CC(=O)OCCCC(=O)[O-])C[N+](C)(C)C` [VCGB, isovaleryl L-carnitine gamma-hydroxybutyrate], the “effect on habituation to morphine-induced analgesia (in words)” value was “reduce habituation to morphine-induced analgesia to an appreciable extent”.

The next test relates to male Wistar rats. Briefly: Withdrawal syndrome due to naloxone administration in morphine-treated rats. The class given is in vivo. The following applies: mean loss of body weight 1 hour after naloxone injection (1 mg/kg subcutaneous); morphine for 10 days. How it is done: After repeated treatment with morphine for a period of 10 days, the rats were all weighed and administered naloxone (1 mg/kg dissolved in saline solution) by subcutaneous injection. The resulting withdrawal syndrome was assessed by measuring the latency of onset of "stereotype jumps" from a circular platform measuring 35 cm in diameter and 70 cm in height. A cut-off time of 900 sec. was used. In 5 groups of animals, naloxone administration was combined with administration of saline, VCGB, GHB, LAC and VC, respectively.
The body weight of the animals was then measured again 1 hour after naloxone injection and the mean loss of body weight was calculated for each group of animals treated.
Consider `CC(=O)OC(CC(=O)[O-])C[N+](C)(C)C` [LAC, acetyl L-carnitine], for which the Weight loss stood at 18.6 ± 2.1 g.
The same measure, in the same setting: then `O=C(O)CCCO` [GHB, gamma-hydroxybutyric acid], with 15.5 ± 0.6 g; and `CC(C)CC(=O)O[C@H](CC(=O)[O-])C[N+](C)(C)C` [VC, isovaleryl L-carnitine], with 16.6 ± 2.1 g; and `CC(C)CC(=O)O[C@H](CC(=O)OCCCC(=O)[O-])C[N+](C)(C)C` [VCGB, isovaleryl L-carnitine gamma-hydroxybutyrate], with 12.3 ± 0.6 g.

Still in this test, the particulars now being: morphine for 10 days, then naloxone 1 mg/kg subcutaneous; cut-off time 900 sec.
For the compound `CC(=O)OC(CC(=O)[O-])C[N+](C)(C)C` [LAC, acetyl L-carnitine], the “Latency of stereotype jumps” value came to 465 ± 99 s.
The same measure, in the same setting: then `O=C(O)CCCO` [GHB, gamma-hydroxybutyric acid], with 451 ± 63 s; and `CC(C)CC(=O)O[C@H](CC(=O)[O-])C[N+](C)(C)C` [VC, isovaleryl L-carnitine], with 480 ± 99 s.
Regarding `CC(C)CC(=O)O[C@H](CC(=O)OCCCC(=O)[O-])C[N+](C)(C)C` [VCGB, isovaleryl L-carnitine gamma-hydroxybutyrate], the “Latency of stereotype jumps” value came out at 564 ± 69 s.
